In patent US20220354998A1, “HYDROGEL-FILLED MICRONEEDLE ARRAYS AND USES THEREOF” (University of Connecticut, priority 2021, published 2022):
Each block holds one compound with its values, some of them ahead of it.

Assays:
[1] = Dual-drug release from multi-length MNA into two-gel skin model; type: physicochemical; conditions: 1% alginate, 16 h
Method: Evaluation of Dual-Drug Release Capability. For the dual release, MNAs with 4.2 mm long and 2 mm short needles were separately loaded with a 1% (m/v) alginate solution in DPBS containing ˜46 μg/mL of Rh-B, ˜1010 μg/mL of BSA-FITC, or no added analyte. Four combinations of analyte-loaded alginate MNAs were tested: (1) long needles loaded with Rh-B and short needles loaded with BSA-FITC (Rh-B/FITC), (2) long needles loaded with Rh-B and short needles blank (Rh-B/Blank), (3) long needles blank and short needles loaded with BSA-FITC (Blank/FITC), and (4) both lengths blank (Blank/Blank). The gels were crosslinked as previously mentioned and ran in quintuplicate. The needles were inserted into a two-gel skin model that include a 2 mm thick 3% (m/v) low-gelling agarose cast on top of a 3 mm thick 10% (m/v) porcine gelatin in 12 well plates. Both solutions were prepared in PBS. […] The collected gels were melted and the amount of Rh-B and BSA-FITC was quantified using a BioTek Cytation 5 plate reader at an excitation/emission of 546/568 and 495/520 nm, respectively.
An additional release experiment was conducted to evaluate the performance of the MNA at the dual-delivery of drugs. […] Following the release, the gel layers were separated, melted, and read in a plate reader for their Rh-B and BSA-FITC content. […] The measured release results are quantified in FIG. 5C, FIG. 5D, and FIG. 13. […]

[2] = system: Human umbilical vein endothelial cells (HUVECs); assay: In vitro scratch assay on cultured HUVECs; type: cell-based
Method: In Vitro Scratch Assay. Human umbilical vein endothelial cells (HUVECs) (Sigma-Aldrich) were cultured in EGM™ Endothelial Cell Growth Medium BulletKit™ (Lonza) complete medium. At their fifth passage, the HUVECs were detached using trypsin-EDTA (0.1% w/v), resuspended in the growth medium, and seeded at a concentration of 50,000 cells per well into a 12-well tissue culture plate that was coated with a thin layer of Geltrex® hESC-Qualified, Ready-To-Use, Reduced Growth Factor Basement Membrane Matrix (Gibco®). The Geltrex® layer was formed by diluting by a factor of 2 in the basal endothelial medium and seeding in empty wells. […]
A scratch was created in the confluent HUVECs by lightly dragging a P200 pipette tip across the bottom of the well. […] The concentration of VEGF in the MNA+VEGF group was calculated so that if total VEGF release occurred, the concentration of VEGF in the well would match the concentration of the positive control (50 ng/mL). […] The area of scratch closure for each time point was calculated using ImageJ (NIH, Bethesda, Md.) and compared for relative area change to 0 h.
The ability of the platform to preserve the bioactivity of encapsulated therapeutics was assessed by loading vascular endothelial growth factor (VEGF), an important angiogenic factor. […] Three different groups were evaluated: MNA−VEGF, MNA+VEGF, and a positive control. […]

Compound: BSA fluorescein isothiocyanate conjugate [BSA-FITC]
BSA-FITC signal by gel layer ([1]; short needles (2 mm)): greater BSA-FITC signal in the top, agarose layer

Compound: vascular endothelial growth factor [VEGF]
healing potential (gap closure) ([2]; after 8 h of culture, HUVEC scratch, n=4): cells nearly closed the gap in its entirety
effect on HUVEC migration ([2]; scratch assay): positive effect

Rh-B signal by gel layer ([1]; long needles (4.2 mm)): stronger in the gelatin
Compound: CCN(CC)c1ccc2c(-c3ccccc3C(=O)O)c3ccc(=[N+](CC)CC)cc-3oc2c1.[Cl-] [Rh-B, Rhodamine B]
